Test results: patent publication US20100022656A1, “OPTICALLY ACTIVE PHENYLETHANOL AMINES AND PREPARING METHOD THEREOF” (SHENYANG PHARMACEUTICAL UNIVERSITY, priority 2006, published 2010)

target: T1, β2-receptor (Cavia porcellus, UniProt Q8K4Z4); assay: Antagonistic effect on isolated trachea strip constriction induced by histamine (study of effect on β2-receptor); type: cell-based; conditions: isolated guinea pig (Hartley) trachea strips contracted with histamine to 50% of maximum; tested compounds formulated as 10^−6 M solution; 37° C.
T1 construct: Trachea was removed and cut from thyroid cartilage to trachea crotch; from tissue; host or cells: guinea pig (Hartley) isolated trachea strips
T1 sequence (Q8K4Z4 whole entry): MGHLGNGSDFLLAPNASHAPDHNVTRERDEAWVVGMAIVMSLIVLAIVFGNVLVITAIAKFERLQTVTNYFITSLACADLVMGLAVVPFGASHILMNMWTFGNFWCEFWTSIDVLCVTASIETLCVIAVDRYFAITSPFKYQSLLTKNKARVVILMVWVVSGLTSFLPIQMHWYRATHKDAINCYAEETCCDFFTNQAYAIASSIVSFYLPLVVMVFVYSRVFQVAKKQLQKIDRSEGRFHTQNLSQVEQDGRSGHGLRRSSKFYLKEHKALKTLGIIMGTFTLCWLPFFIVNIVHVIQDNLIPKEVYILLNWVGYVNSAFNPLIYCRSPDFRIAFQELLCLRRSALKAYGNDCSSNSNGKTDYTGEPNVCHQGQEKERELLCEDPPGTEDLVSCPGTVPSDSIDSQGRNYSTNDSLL
Excerpt: Study of the Effect of Compounds of the Invention on β2-Receptor
Sample: All tested compounds were formulated into solution of 10^−6 M.
The antagonistic effects of the compounds of the present invention on the trachea constriction induced by histamine.
Guinea pigs were sacrificed and cut through the skin and subcutaneous tissue on ventral side of neck. Trachea was removed and cut from thyroid cartilage to trachea crotch, then placed into an ice cooled oxygenated Kebs-Hensleits solution. The connective tissues around the trachea were cut off. The trachea was held by a nipper on one end and cut into trachea strips (2 cm×3 mm) in helix. The samples were then put into a bath containing 20 ml of Kebs-Hensleits solution. The lower end of the trachea strips was fastened to a vent hook and the upper end was connected to a strain gauge transducer, thus the tension change was measured by the recorder. The bath was controlled at 37° C. and oxygen gas was continuously supplied. The preload of the samples was 2 g. The samples were equilibrated in the nutrient solution for 1 hour and the solution was refreshed every 20 min.
When the tension of the samples reached a stable value, various concentrations (1×10^−10˜3×10^−4 mol·L^−1) of histamine were added to the bath. A dose-effect curve was established to determine the concentration of histamine when 50% of the maximum contraction was reached. After refreshing the solution and balancing the samples for 60 min, an amount of histamine was added to the bath. When the tension of trachea strips reached 50% of the maximum contraction, the tested compounds were added to bath, and the antagonistic effect (represented as relaxing rate) of the compounds on the isolated trachea constriction induced by histamine was calculated as below:
Relaxing rate (%)=[(Contraction intensity after histamine addition−Contraction intensity after tested compounds addition)/[…]]×100%

Row | SMILES | Relaxing rate (%)
1 | CC(C)(C)NC(CO)c1cc(Cl)c(N)c(C#N)c1.Cl (stereo not drawn) [drawing 6] | 100.0
2 | CC(C)(C)NC(CO)c1cc(Cl)c(N)c(C#N)c1.Cl (stereo not drawn) [drawing 7] | 78.1
3 | CC(C)(C)NC(CO)c1cc(Cl)c(N)c(C#N)c1.Cl (stereo not drawn) [drawing 8] | 112.1
4 | CC(C)(C)NC(CO)c1ccc(N)c(C(F)(F)F)c1.Cl (stereo not drawn) [drawing 12] | 70.2
5 | CC(C)(C)NC(CO)c1ccc(N)c(C(F)(F)F)c1.Cl (stereo not drawn) [drawing 13] | 55.3
6 | CC(C)(C)NC(CO)c1ccc(N)c(C(F)(F)F)c1.Cl (stereo not drawn) [drawing 14] | 88.3
